Reference: PubChem BioAssay AID330 (DTP/NCI, 2004)
“And” between values parts separate entries of the source, which are not always exact repeats. Equal entries are not always repeated. Toxic doses and inconclusive results are not listed.

Test system: P388 leukemia ip, CD2F1 mice, survival T/C
Experiment: NCI In Vivo Anticancer Drug Screen. Data for tumor model P388 Leukemia (intraperitoneal) in CD2F1 (CDF1) mice
Conditions: endpoint: median survival time, higher = longer survival
In short: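 Mice carrying the transplanted tumor received test compound or vehicle. Survival was recorded in each group, and the value is the treated-group measurement divided by that of the vehicle-treated control group.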

[1] = dose: 100.0 mg/kg/injection, schedule: Q04DX003 (ip), vehicle: saline with Tween-80
[2] = dose: 200.0 mg/kg/injection, schedule: Q04DX003 (ip), vehicle: saline with Tween-80
[3] = dose: 25.0 mg/kg/injection, schedule: Q01DX009 (ip), vehicle: saline with Tween-80
[4] = dose: 25.0 mg/kg/injection, schedule: Q01DX009 (ip), vehicle: saline
[5] = dose: 50.0 mg/kg/injection, schedule: Q01DX009 (ip), vehicle: saline
[6] = dose: 100.0 mg/kg/injection, schedule: Q01DX009 (ip), vehicle: saline
[7] = dose: 200.0 mg/kg/injection, schedule: Q01DX009 (ip), vehicle: saline
[8] = dose: 12.5 mg/kg/injection, schedule: Q01DX009 (ip), vehicle: saline
[9] = dose: 50.0 mg/kg/injection, schedule: Q01DX005 (ip), vehicle: saline with Tween-80
[10] = dose: 100.0 mg/kg/injection, schedule: Q01DX005 (ip), vehicle: saline with Tween-80
[11] = dose: 200.0 mg/kg/injection, schedule: Q01DX005 (ip), vehicle: saline with Tween-80
[12] = dose: 60.0 mg/kg/injection, schedule: Q01DX005 (ip), vehicle: saline with Tween-80
[13] = dose: 120.0 mg/kg/injection, schedule: Q01DX005 (ip), vehicle: saline with Tween-80
[14] = dose: 240.0 mg/kg/injection, schedule: Q01DX005 (ip), vehicle: saline with Tween-80
[15] = dose: 50.0 mg/kg/injection, schedule: Q01DX009 (ip), vehicle: saline with Tween-80
[16] = dose: 100.0 mg/kg/injection, schedule: Q01DX009 (ip), vehicle: saline with Tween-80

O=[n+]1c2c(n([O-])c3ccccc31)CCCCC2
T/C [1]: 99 % of control | T/C [2]: 101 % of control | T/C (dose: 400.0 mg/kg/injection, schedule: Q04DX003 (ip), vehicle: saline with Tween-80): 92 % of control

CN(C)C(=S)/N=C1/SCS(=O)(=O)N1c1ccccc1
T/C (dose: 50.0 mg/kg/injection, schedule: Q04DX003 (ip), vehicle: saline with Tween-80): 98 % of control | T/C [1]: 104 % of control | T/C [2]: 95 % of control

Cn1c(=O)c2c(c3ccccc31)Oc1oc3ccc4ccccc4c3c(=O)c1C2
T/C (dose: 12.5 mg/kg/injection, schedule: Q01DX009 (ip), vehicle: saline with Tween-80): 92 % of control | T/C [3]: 90 % of control

CCOC(=O)CSc1ccc(C)cc1
T/C [4]: 105 % of control | T/C [5]: 89 % of control | T/C [6]: 96 % of control | T/C [7]: 99 % of control

O=C1OS(=O)(=O)c2cc3c(cc21)C1C(C2C3C3(Cl)C(Cl)=C(Cl)C2(Cl)C3(Cl)Cl)C2(Cl)C(Cl)=C(Cl)C1(Cl)C2(Cl)Cl (stereo not drawn)
T/C [8]: 97 % of control | T/C [4]: 100 % of control | T/C [5]: 100 % of control and 104 % of control | T/C [6]: 107 % of control

CC(=O)Oc1cc2c(C)c3ccccc3cc2c2ccccc12
T/C (dose: 75.0 mg/kg/injection, schedule: Q01DX001 (ip), vehicle: Klucel (hydroxypropylcellulose) (HPC)): 102 % of control | T/C (dose: 150.0 mg/kg/injection, schedule: Q01DX001 (ip), vehicle: Klucel (hydroxypropylcellulose) (HPC)): 102 % of control | T/C (dose: 300.0 mg/kg/injection, schedule: Q01DX001 (ip), vehicle: Klucel (hydroxypropylcellulose) (HPC)): 100 % of control

O/C(=C\C(=S)S)c1ccccc1
T/C (dose: 1.56 mg/kg/injection, schedule: Q04DX003 (ip), vehicle: Klucel (hydroxypropylcellulose) (HPC)): 96 % of control | T/C (dose: 3.12 mg/kg/injection, schedule: Q04DX003 (ip), vehicle: Klucel (hydroxypropylcellulose) (HPC)): 96 % of control | T/C (dose: 6.25 mg/kg/injection, schedule: Q04DX003 (ip), vehicle: Klucel (hydroxypropylcellulose) (HPC)): 97 % of control

CN(Cc1c(O)ccc2ccccc12)Cc1c(O)ccc2ccccc12
T/C [9]: 97 % of control | T/C [10]: 109 % of control | T/C [11]: 100 % of control

CCCCCN(CCCCC)CCC(O)c1cccc2ccccc12 (stereo not drawn)
T/C (dose: 12.5 mg/kg/injection, schedule: Q01DX005 (ip), vehicle: saline with Tween-80): 100 % of control | T/C (dose: 25.0 mg/kg/injection, schedule: Q01DX005 (ip), vehicle: saline with Tween-80): 105 % of control | T/C [9]: 103 % of control and 113 % of control

Nc1cccc2nccn12
T/C [8]: 105 % of control | T/C [4]: 102 % of control | T/C [5]: 104 % of control and 95 % of control

CCOC(=O)C([NH-])C([NH-])C(=O)OCC.[Cl][Pt+2][Cl] (stereo not drawn)
T/C (dose: 12.5 mg/kg/injection, schedule: Q04DX002 (ip), vehicle: saline with Tween-80): 163 % of control | T/C (dose: 25.0 mg/kg/injection, schedule: Q04DX002 (ip), vehicle: saline with Tween-80): 164 % of control

O=C(c1ccccc1)C1(Cl)CCCCC1
T/C (dose: 25.0 mg/kg/injection, schedule: Q01DX009 (ip), vehicle: saline + alcohol): 99 % of control | T/C (dose: 50.0 mg/kg/injection, schedule: Q01DX009 (ip), vehicle: saline + Tween-80 + alcohol): 108 % of control | T/C (dose: 50.0 mg/kg/injection, schedule: Q01DX009 (ip), vehicle: saline + alcohol): 91 % of control | T/C (dose: 100.0 mg/kg/injection, schedule: Q01DX009 (ip), vehicle: saline + Tween-80 + alcohol): 104 % of control | T/C (dose: 100.0 mg/kg/injection, schedule: Q01DX009 (ip), vehicle: saline + alcohol): 100 % of control | T/C (dose: 200.0 mg/kg/injection, schedule: Q01DX009 (ip), vehicle: saline + Tween-80 + alcohol): 99 % of control | T/C (dose: 200.0 mg/kg/injection, schedule: Q01DX009 (ip), vehicle: saline + alcohol): 92 % of control | T/C (dose: 400.0 mg/kg/injection, schedule: Q01DX009 (ip), vehicle: saline + Tween-80 + alcohol): 112 % of control

COc1ccc(C(=O)Cc2nc3nnc(N)n3[nH]c2=O)cc1
T/C (dose: 60.0 mg/kg/injection, schedule: Q01DX005 (ip), vehicle: saline): 99 % of control | T/C (dose: 120.0 mg/kg/injection, schedule: Q01DX005 (ip), vehicle: saline): 104 % of control | T/C (dose: 240.0 mg/kg/injection, schedule: Q01DX005 (ip), vehicle: saline): 103 % of control

CCOC(=O)C(C)Oc1ccc(Cn2ccnn2)cc1 (stereo not drawn)
T/C [12]: 98 % of control | T/C [13]: 98 % of control | T/C [14]: 96 % of control

O=C(O)c1cc2ccc(Cl)cc2[se]1
T/C [8]: 89 % of control | T/C [4]: 105 % of control | T/C [5]: 106 % of control and 88 % of control | T/C [7]: 91 % of control

CCC(CC)CS(=O)(=O)OCCCCOS(=O)(=O)CC(CC)CC
T/C (dose: 50.0 mg/kg/injection, schedule: Q01DX005 (ip), vehicle: saline): 99 % of control | T/C (dose: 100.0 mg/kg/injection, schedule: Q01DX005 (ip), vehicle: saline): 107 % of control | T/C (dose: 200.0 mg/kg/injection, schedule: Q01DX005 (ip), vehicle: saline): 111 % of control

CC1(C)CC(OS(=O)(=O)c2ccccc2)CC(C)(C)N1O
T/C (dose: 100.0 mg/kg/injection, schedule: Q01DX001 (ip), vehicle: Klucel (hydroxypropylcellulose) (HPC)): 97 % of control | T/C (dose: 200.0 mg/kg/injection, schedule: Q01DX001 (ip), vehicle: Klucel (hydroxypropylcellulose) (HPC)): 97 % of control | T/C (dose: 400.0 mg/kg/injection, schedule: Q01DX001 (ip), vehicle: Klucel (hydroxypropylcellulose) (HPC)): 97 % of control

CN(C)C1C(=O)C(C(=O)NCN2CCCC2)=C(O)C2(O)C(=O)C3=C(O)c4c(O)cccc4C(C)(O)C3CC12 (stereo not drawn)
T/C [9]: 96 % of control | T/C [10]: 95 % of control | T/C [11]: 97 % of control

CN1COc2c(Cl)cc(Cl)cc2C1
T/C [3]: 95 % of control | T/C [15]: 90 % of control | T/C [16]: 86 % of control

N#CC(C(=O)CCc1nc2ccccc2[nH]1)c1ccccc1Cl (stereo not drawn)
T/C [12]: 111 % of control | T/C [13]: 105 % of control | T/C [14]: 96 % of control

Cc1ccc(C2=NN(c3ccccc3)C(c3ccccc3)C2NC2CCCCC2)cc1 (stereo not drawn)
T/C (dose: 25.0 mg/kg/injection, schedule: Q01DX005 (ip), vehicle: Klucel (hydroxypropylcellulose) (HPC)): 90 % of control | T/C (dose: 50.0 mg/kg/injection, schedule: Q01DX005 (ip), vehicle: Klucel (hydroxypropylcellulose) (HPC)): 90 % of control | T/C (dose: 100.0 mg/kg/injection, schedule: Q01DX005 (ip), vehicle: Klucel (hydroxypropylcellulose) (HPC)): 89 % of control

CC(C)(C)NC(Cc1ccccc1)=NC1CCCCC1
T/C (dose: 12.5 mg/kg/injection, schedule: Q04DX002 (ip), vehicle: saline): 103 % of control | T/C (dose: 25.0 mg/kg/injection, schedule: Q04DX002 (ip), vehicle: saline): 101 % of control

CCCC(=O)O
T/C [5]: 93 % of control | T/C [6]: 91 % of control | T/C [7]: 90 % of control

CSC(=S)n1nc(-c2cccs2)c(N=Nc2ccc(Cl)cc2)c1C(F)(F)F
T/C [12]: 92 % of control | T/C [13]: 100 % of control | T/C [14]: 111 % of control

O=S(=O)(c1ccccn1)c1nc2ccccc2s1
T/C [12]: 94 % of control | T/C [13]: 90 % of control | T/C [14]: 94 % of control

CCCCCCCCCCN1CCC(N2CCCCC2)CC1
T/C [8]: 98 % of control | T/C [4]: 100 % of control | T/C [5]: 99 % of control | T/C [6]: 93 % of control

O=C(NO)C(O)C(O)C(O)C(O)CO (stereo not drawn)
T/C [8]: 93 % of control | T/C [4]: 91 % of control | T/C [5]: 98 % of control and 97 % of control | T/C [7]: 86 % of control

O=C(OCC1CC=CCC1CCl)c1ccccc1 (stereo not drawn)
T/C [15]: 96 % of control | T/C [16]: 99 % of control | T/C (dose: 200.0 mg/kg/injection, schedule: Q01DX009 (ip), vehicle: saline with Tween-80): 99 % of control

C1COCCCOCCCOCCCC2(CCCOCCCOC1)CO2
T/C [9]: 110 % of control | T/C [10]: 86 % of control | T/C [11]: 109 % of control

C=C1C(=O)OC2/C=C(\C)CC/C=C(\C)C(OC(=O)C3(C)OC3C)C(O)C12 (stereo not drawn)
T/C (dose: 12.5 mg/kg/injection, schedule: Q01DX009 (ip), vehicle: Klucel (hydroxypropylcellulose) (HPC)): 96 % of control | T/C (dose: 25.0 mg/kg/injection, schedule: Q01DX009 (ip), vehicle: Klucel (hydroxypropylcellulose) (HPC)): 100 % of control | T/C (dose: 50.0 mg/kg/injection, schedule: Q01DX009 (ip), vehicle: Klucel (hydroxypropylcellulose) (HPC)): 115 % of control | T/C (dose: 100.0 mg/kg/injection, schedule: Q01DX009 (ip), vehicle: Klucel (hydroxypropylcellulose) (HPC)): 103 % of control
